This is an account of results in PMC5805526, “ZB716, a steroidal selective estrogen receptor degrader (SERD), is orally efficacious in blocking tumor growth in mouse xenograft models” (Oncotarget, 2018).

Structures are written as SMILES. Like-named read-outs stand apart in the source and are kept apart here.

The target in one data set is T1, ERα LBD (Homo sapiens, UniProt P03372).
T1 construct: using 7 nM GST-tagged ERα LBD (Invitrogen); purchased Invitrogen
T1 sequence (P03372 311-547 limits assumed): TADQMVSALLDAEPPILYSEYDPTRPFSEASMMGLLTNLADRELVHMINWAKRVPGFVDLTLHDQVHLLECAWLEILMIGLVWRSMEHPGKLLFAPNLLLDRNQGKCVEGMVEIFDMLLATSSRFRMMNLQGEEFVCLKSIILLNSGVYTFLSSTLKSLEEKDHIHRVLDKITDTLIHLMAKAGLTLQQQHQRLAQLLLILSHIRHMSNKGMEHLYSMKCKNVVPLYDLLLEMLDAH
The data set can be described thus: MARCoNI ERα-coregulator interaction peptide microarray. The note with it: 10 μM compound, 7 nM GST-tagged ERα LBD, vs apo. It counts as biochemical. As to the method:
The modulation of ERα-coregulator interaction by compound was analyzed using MARCoNI (Micro Array Assay for Real-time Coregulator Nuclear receptor Interaction) as described previously using 7 nM GST-tagged ERα LBD (Invitrogen).
Each condition is measured using 3 technical replicates (arrays). After incubation, unbound receptor is removed by washing, and a tiff image of each array is acquired using a CCD camera and receptor binding to each peptide on the array is quantified using dedicated software. For each condition, the three technical replicates are used to calculate mean and S.E.M. ERα binding as well as compound-induced log-fold modulation vs. control for each individual motif. Significance of the modulation is assessed using Student's t-Test.

For data set [1], the system named is MCF-7 breast cancer cells. The data set can be described thus: MCF-7 cell growth inhibition. It counts as cell-based. The following applies: Homo sapiens, MCF7, 120 h; 5 days treatment, cell count vs DMSO. How it is done: At the end of treatment, surviving cells were counted and normalized to control cells that were treated with vehicle (DMSO) only. (B) IC50 values were obtained by deriving logarithmic curves from the %cell survival vs. treatment dose plot.

Data set [2] concerns T47D/Y537S breast cancer cells. The data set can be described thus: T47D/Y537S ESR1 mutant cell growth inhibition. The following applies: Homo sapiens, 120 h, 5 days treatment. Format: cell-based. The source says: Wild-type ESR1, the Y537S ESR1 mutant were fused to a FLAG tag at their C-termini and cloned into the lentiviral vector pFLRu-FH [30]. Y537S mutation was first introduced into ESR1 using the QuikChange II XL Site-Directed Mutagenesis Kit (Agilent) with an ESR1-encoding plasmid (Accession number NM_000125.1, GeneCopoeia Inc.) as the template. […] To make lentiviral particles, pFLRu-FH vector DNAs (encoding ESR1(wt) and ESR1(Y537S)) were cotransfected with the packaging plasmids into HEK293T cells using Fugene 6 (Roche). At 48 hours post transfection, culture media containing different viruses were added to T47D cells in the presence of polybrene followed by 3-day puromycin selection for stable expression.
Viable cell numbers were counted with a Z Series Coulter Counter instrument (Beckman-Coulter) following manufacturer's instructions. […] IC50 values were obtained from dose-response curves for all treatments.

A short description of data set [3]: Drug concentrations in final plasma and tumor tissue of MCF-7 xenograft mice. The following applies: female, Nu/Nu, mouse. It counts as in vivo. How it is done: The plasma samples of 100 μL each were processed for analysis by a TSQ UPLC-MS/MS system. Aliquots of 10 μL of 0.5 ng/μl E-Tamoxifen-2C^13, N^15, 200 μL methanol, and 400 μl chloroform were added to the plasma in a 1.5 mL centrifuge tube in sequence. The sample was vortexed and stored at −20°C for 4 hours, followed by sonication in a Branson B3510MT Ultrasonic Cleaners for 30 min and centrifuged at 12000 RPM on a Heraeus Fresco 21 Refrigerated Micro Centrifuge from Thermo Fisher Scientific for 10 min. The supernatant was dried with a nitrogen gas flow and suspended in 100 μL methanol. Aliquots of 10 μL of the above processed samples were injected into a TSQ Vantage mass spectrometer connected with a heated electrospray ionization probe and a Dionex Ultimat 3000 UHPLC with a Hypersil gold column (50×2.1 mm). The probe setting and front mass spectrometer setting were controlled as follows: spray voltage 3200 voltage, auxiliary gas 10psi, vaporizer temperature 365°C, capillary temperature 300°C, sheath gas 30psi, S-lens RF amplitude 51 voltage. The flow gradient was started with initial 30% mobile phase A of water with 0.05% formic acid to 1 min, to 100% mobile phase B of acetonitrile with 0.05% formic acid at 8 min, and return to 30% mobile phase A at 13 min.

The subject of a further data set is ERα. Further details: method as in PMID 27529700. The following applies: read-out: binding affinity to ERα, EC50; cited from earlier work.
Details of data set [4]: method as in PMID 27529700. The following applies: after ZB716 dosing; cited from earlier work.

One may read the IC50 as the concentration needed to halve the response being measured. As usually defined, the EC50 is the concentration that produces a half-maximal response. With `C[C@]12CC[C@@H]3c4ccc(O)cc4C[C@@H](CCCCCCCCC[S+]([O-])CCCC(F)(F)C(F)(F)F)[C@H]3[C@@H]1CC[C@@H]2O` (some centres unmarked) [fulvestrant, reference compound], the “modulation of ERα interaction with coactivator motifs (NCOA family)” value at ERα LBD was “strongly reduced”. The IC50 in data set [1] came out at 1.5 nM; in data set [2] it was 32 nM. In addition, the concentration at 3 weeks worked out at 0.0279 µg/mL in data set [3] (plasma, subcutaneous, 200 mg/kg/wk, read-out: Average concentration in final plasma); 0.0184 µg/mL in data set [3] (plasma, treatment ZB716 10 mg/kg daily PO, end of study, read-out: Average concentration in final plasma); 0.145 µg/mL in data set [3] (plasma, treatment ZB716 30 mg/kg daily PO, end of study, read-out: Average concentration in final plasma); 0.16 µg/mL in data set [3] (tumor tissue, subcutaneous, 200 mg/kg/wk, read-out: Average concentration in tumor tissue); 0.0679 µg/mL in data set [3] (tumor tissue, treatment ZB716 10 mg/kg daily PO, end of study, read-out: Average concentration in tumor tissue); 0.119 µg/mL in data set [3] (tumor tissue, treatment ZB716 30 mg/kg daily PO, end of study, read-out: Average concentration in tumor tissue). Besides, in the data set with ERα, the EC50 is […]. Also, in data set [4], the “share of total active ingredients in mice plasma (active metabolite of ZB716)” value is listed as 10-20%.
